Our source for the T/C values is PubChem BioAssay AID328 (DTP/NCI, 2004).

The subject of the experiment is BDF1 mice, P388 leukemia ip, median survival T/C. The experiment can be described thus: NCI In Vivo Anticancer Drug Screen. Data for tumor model P388 Leukemia (intraperitoneal) in B6D2F1 (BDF1) mice. Particulars: endpoint: median survival time, higher = longer survival. In a few lines:
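Steps: implant the tumour, treat one group with compound and another with vehicle, record survival, then divide treated by control.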

The mark [1] stands for this setting: dose: 50.0 mg/kg/injection, schedule: Q01DX001 (ip), vehicle: saline.
[2] abbreviates: dose: 200.0 mg/kg/injection, schedule: Q01DX001 (ip), vehicle: saline.
The mark [3] stands for this setting: dose: 100.0 mg/kg/injection, schedule: Q04DX003 (ip), vehicle: Klucel (hydroxypropylcellulose) (HPC).
[4] abbreviates: dose: 200.0 mg/kg/injection, schedule: Q04DX003 (ip), vehicle: Klucel (hydroxypropylcellulose) (HPC).
The mark [5] stands for this setting: dose: 100.0 mg/kg/injection, schedule: Q01DX009 (ip), vehicle: saline.
[6] abbreviates: dose: 100.0 mg/kg/injection, schedule: Q01DX009 (ip), vehicle: saline with Tween-80.
Where [7] appears, read: dose: 200.0 mg/kg/injection, schedule: Q01DX009 (ip), vehicle: saline with Tween-80.
[8] abbreviates: dose: 30.0 mg/kg/injection, schedule: Q01DX009 (ip), vehicle: saline with Tween-80.

Where “and” joins values, the source holds several entries; their conditions need not be identical. Identical values can stand only once. Toxic doses and inconclusive results are not listed.

Regarding `Clc1ccc2c(c1)CN1Cc3cc(Cl)ccc3C2C1`, the T/C runs as follows: (dose: 50.0 mg/kg/injection, schedule: Q01DX001 (ip), vehicle: saline with Tween-80) 108 % of control; (dose: 100.0 mg/kg/injection, schedule: Q01DX001 (ip), vehicle: saline with Tween-80) 108 % of control; (dose: 200.0 mg/kg/injection, schedule: Q01DX001 (ip), vehicle: saline with Tween-80) 97 % of control.
Take `C[n+]1ccc(Nc2ccc(NC(=O)c3ccc(Nc4cc[n+](C)c5ccc(N)cc45)cc3)cc2)cc1`: the T/C (dose: 1.0 mg/kg/injection, schedule: Q01DX009 (ip), vehicle: Klucel (hydroxypropylcellulose) (HPC)) is 211 % of control; the T/C (dose: 2.0 mg/kg/injection, schedule: Q01DX009 (ip), vehicle: Klucel (hydroxypropylcellulose) (HPC)) is 170 % of control and 195 % of control; the T/C (dose: 3.24 mg/kg/injection, schedule: Q04DX003 (ip), vehicle: water) was 173 % of control; the T/C (dose: 4.0 mg/kg/injection, schedule: Q01DX009 (ip), vehicle: Klucel (hydroxypropylcellulose) (HPC)) was 243 % of control and 250 % of control; the T/C (dose: 4.32 mg/kg/injection, schedule: Q01DX009 (ip), vehicle: water) is 254 % of control; the T/C (dose: 5.4 mg/kg/injection, schedule: Q04DX003 (ip), vehicle: water) is 180 % of control. Besides, the T/C was 261 % of control (dose: 7.2 mg/kg/injection, schedule: Q01DX009 (ip), vehicle: water); 244 % of control and 250 % of control (dose: 8.0 mg/kg/injection, schedule: Q01DX009 (ip), vehicle: Klucel (hydroxypropylcellulose) (HPC)); 220 % of control (dose: 9.0 mg/kg/injection, schedule: Q04DX003 (ip), vehicle: water); 103 % of control (dose: 15.0 mg/kg/injection, schedule: Q04DX003 (ip), vehicle: water).
Regarding `CC12OC(=O)CC1CC(=O)O2` (configuration not stated), the T/C reads like this: under setting [1], 95 % of control; (dose: 100.0 mg/kg/injection, schedule: Q01DX001 (ip), vehicle: saline) 95 % of control; under setting [2], 105 % of control.
Take `Cc1c(Cc2ccccc2)[n+](=O)c2ccccc2n1[O-]`: the T/C is, setting by setting: under setting [3], 100 % of control; under setting [4], 105 % of control.
In the case of `Cc1cc(O)c2cc3c(O)c(O)ccc3cc2c1`, the T/C is, setting by setting: (dose: 0.5 mg/kg/injection, schedule: Q01DX010 (ip), vehicle: saline) 100 % of control; (dose: 1.0 mg/kg/injection, schedule: Q01DX010 (ip), vehicle: saline) 109 % of control; (dose: 2.0 mg/kg/injection, schedule: Q01DX010 (ip), vehicle: saline) 118 % of control and 122 % of control; (dose: 4.0 mg/kg/injection, schedule: Q01DX010 (ip), vehicle: saline) 122 % of control; (dose: 31.3 micrograms/kg/injection, schedule: Q01DX010 (ip), vehicle: saline) 109 % of control; (dose: 125.0 micrograms/kg/injection, schedule: Q01DX010 (ip), vehicle: saline) 90 % of control. For the same molecule, the T/C (dose: 250.0 micrograms/kg/injection, schedule: Q01DX010 (ip), vehicle: saline) is 90 % of control.
On to `Cc1cc(N(CCOS(C)(=O)=O)CCOS(C)(=O)=O)ccc1C=Nc1ccc(-c2csc(Cc3ccccc3)n2)cc1`, for which the T/C is 100 % of control and 211 % of control (dose: 8.25 mg/kg/injection, schedule: Q01DX009 (ip), vehicle: Klucel (hydroxypropylcellulose) (HPC)); 225 % of control (dose: 12.4 mg/kg/injection, schedule: Q01DX009 (ip), vehicle: Klucel (hydroxypropylcellulose) (HPC)); 250 % of control (dose: 12.5 mg/kg/injection, schedule: Q01DX009 (ip), vehicle: Klucel (hydroxypropylcellulose) (HPC)); 155 % of control (dose: 18.7 mg/kg/injection, schedule: Q01DX009 (ip), vehicle: Klucel (hydroxypropylcellulose) (HPC)); 227 % of control and 178 % of control (dose: 18.75 mg/kg/injection, schedule: Q01DX009 (ip), vehicle: Klucel (hydroxypropylcellulose) (HPC)); 99 % of control (dose: 28.13 mg/kg/injection, schedule: Q01DX009 (ip), vehicle: Klucel (hydroxypropylcellulose) (HPC)).
Take `Cc1cccc(Br)[n+]1[O-]`: the T/C by setting is: (dose: 25.0 mg/kg/injection, schedule: Q01DX009 (ip), vehicle: saline) 90 % of control; (dose: 25.0 mg/kg/injection, schedule: Q04DX003 (ip), vehicle: saline) 95 % of control; under setting [1], 100 % of control; under setting [5], 95 % of control; (dose: 100.0 mg/kg/injection, schedule: Q04DX003 (ip), vehicle: saline) 95 % of control; under setting [2], 100 % of control.
Turning to `CCCCOCN(COCCCC)c1ccc([N+](=O)[O-])cc1`, the T/C by setting is: (dose: 50.0 mg/kg/injection, schedule: Q01DX009 (ip), vehicle: saline with Tween-80) 106 % of control; under setting [6], 104 % of control; under setting [7], 100 % of control.
For `Cc1ccc(NC2=CC(=O)C(=O)C=C2Nc2ccc(C)cc2)cc1`, the T/C reads like this: (dose: 15.0 mg/kg/injection, schedule: Q01DX009 (ip), vehicle: saline with Tween-80) 88 % of control; under setting [8], 88 % of control; (dose: 60.0 mg/kg/injection, schedule: Q01DX009 (ip), vehicle: saline with Tween-80) 100 % of control.
Take `O=NN(CCCl)C(=O)NC1CCC(NC(=O)N(CCCl)N=O)CC1` (configuration not stated): the T/C (dose: 11.0 mg/kg/injection, schedule: Q04DX003 (ip), vehicle: saline with Tween-80) was 229 % of control; the T/C (dose: 13.0 mg/kg/injection, schedule: Q01DX009 (ip), vehicle: saline with Tween-80) was 187 % of control; the T/C (dose: 20.0 mg/kg/injection, schedule: Q01DX009 (ip), vehicle: saline with Tween-80) was 250 % of control and 272 % of control; the T/C (dose: 22.0 mg/kg/injection, schedule: Q04DX003 (ip), vehicle: saline with Tween-80) is 209 % of control and 220 % of control; the T/C under setting [8] is 272 % of control; the T/C (dose: 44.0 mg/kg/injection, schedule: Q01DX009 (ip), vehicle: saline with Tween-80) was 272 % of control. Further, the T/C is 272 % of control (dose: 44.0 mg/kg/injection, schedule: Q04DX003 (ip), vehicle: saline with Tween-80); 240 % of control and 272 % of control (dose: 66.0 mg/kg/injection, schedule: Q01DX009 (ip), vehicle: saline with Tween-80); 272 % of control and 300 % of control (dose: 88.0 mg/kg/injection, schedule: Q04DX003 (ip), vehicle: saline with Tween-80); 224 % of control and 192 % of control under setting [6]; 300 % of control (dose: 133.0 mg/kg/injection, schedule: Q04DX003 (ip), vehicle: saline with Tween-80); 176 % of control (dose: 150.0 mg/kg/injection, schedule: Q01DX009 (ip), vehicle: saline with Tween-80). Also, the T/C runs as follows: under setting [7], 115 % of control; (dose: 200.0 mg/kg/injection, schedule: Q04DX003 (ip), vehicle: saline with Tween-80) 300 % of control; (dose: 300.0 mg/kg/injection, schedule: Q04DX003 (ip), vehicle: saline with Tween-80) 210 % of control.
On to `COc1cccc2c1C(=O)c1c(O)c3c(c(O)c1C2=O)C[C@@](O)(C(O)O)C[C@@H]3OC1CC(N)C(O)C(C)O1` (some centres not stated), for which the T/C was 169 % of control (dose: 4.0 mg/kg/injection, schedule: Q01DX009 (ip), vehicle: water); 87 % of control (dose: 8.0 mg/kg/injection, schedule: Q01DX009 (ip), vehicle: water); 87 % of control (dose: 16.0 mg/kg/injection, schedule: Q01DX009 (ip), vehicle: water).
Regarding `N#CC(Br)C(N)=O` (configuration not stated), the T/C reads like this: (dose: 2.5 mg/kg/injection, schedule: Q01DX009 (ip), vehicle: saline) 98 % of control; (dose: 5.0 mg/kg/injection, schedule: Q01DX009 (ip), vehicle: saline) 120 % of control.
Regarding `NNC(=O)c1ccc(Br)cc1`, the T/C is, setting by setting: (dose: 50.0 mg/kg/injection, schedule: Q01DX009 (ip), vehicle: Klucel (hydroxypropylcellulose) (HPC)) 96 % of control; (dose: 100.0 mg/kg/injection, schedule: Q01DX009 (ip), vehicle: Klucel (hydroxypropylcellulose) (HPC)) 92 % of control; under setting [3], 95 % of control; under setting [4], 91 % of control.
On to `CCC(CC)c1ccccn1`, for which the T/C is, setting by setting: (dose: 50.0 mg/kg/injection, schedule: Q01DX009 (ip), vehicle: saline) 104 % of control; (dose: 100.0 mg/kg/injection, schedule: Q01DX009 (ip), vehicle: carboxymethylcellulose (CMC)) 99 % of control; under setting [5], 105 % of control; (dose: 200.0 mg/kg/injection, schedule: Q01DX009 (ip), vehicle: carboxymethylcellulose (CMC)) 108 % of control; (dose: 200.0 mg/kg/injection, schedule: Q01DX009 (ip), vehicle: saline) 113 % of control.
